Where “and” joins values, the source holds several entries; their conditions need not be identical. Equal values may be shown once. Inconclusive results and toxic doses are left out. The calls were made as follows: active = survival T/C of 150% or more; inactive = T/C below 125% in these data.
Tested on: P388 leukemia ip, CD2F1 mice, survival T/C
Test: NCI In Vivo Anticancer Drug Screen. Data for tumor model P388 Leukemia (intraperitoneal) in CD2F1 (CDF1) mice
Conditions: endpoint: median survival time, higher = longer survival
In short: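 Mice carrying the transplanted tumor received test compound or vehicle. Survival was recorded in each group, and the value is the treated-group measurement divided by that of the vehicle-treated control group.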

[1] = dose: 50.0 mg/kg/injection, schedule: Q01DX005 (ip), vehicle: saline with Tween-80
[2] = dose: 100.0 mg/kg/injection, schedule: Q01DX005 (ip), vehicle: saline with Tween-80
[3] = dose: 25.0 mg/kg/injection, schedule: Q01DX005 (ip), vehicle: saline
[4] = dose: 50.0 mg/kg/injection, schedule: Q01DX005 (ip), vehicle: saline
[5] = dose: 50.0 mg/kg/injection, schedule: Q01DX009 (ip), vehicle: saline with Tween-80
[6] = dose: 100.0 mg/kg/injection, schedule: Q01DX009 (ip), vehicle: saline with Tween-80
[7] = dose: 60.0 mg/kg/injection, schedule: Q01DX005 (ip), vehicle: saline with Tween-80
[8] = dose: 120.0 mg/kg/injection, schedule: Q01DX005 (ip), vehicle: saline with Tween-80
[9] = dose: 100.0 mg/kg/injection, schedule: Q04DX003 (ip), vehicle: saline with Tween-80
[10] = dose: 200.0 mg/kg/injection, schedule: Q04DX003 (ip), vehicle: saline with Tween-80

Measured: T/C

CS(=O)(=O)OCCCCOS(C)(=O)=O
inactive: dose: 3.75 mg/kg/injection, schedule: Q01DX009 (ip), vehicle: saline with Tween-80 90 % of control | dose: 3.75 mg/kg/injection, schedule: Q03HX008 (ip), vehicle: saline with Tween-80 104 % of control | dose: 3.75 mg/kg/injection, schedule: Q03HX016 (ip), vehicle: saline with Tween-80 100 % of control | dose: 3.75 mg/kg/injection, schedule: Q03HX024 (ip), vehicle: saline with Tween-80 100 % of control | dose: 7.5 mg/kg/injection, schedule: Q03HX008 (ip), vehicle: saline with Tween-80 109 % of control | dose: 7.5 mg/kg/injection, schedule: Q03HX016 (ip), vehicle: saline with Tween-80 100 % of control | dose: 7.5 mg/kg/injection, schedule: Q03HX024 (ip), vehicle: saline with Tween-80 100 % of control | dose: 15.0 mg/kg/injection, schedule: Q01DX009 (ip), vehicle: saline with Tween-80 90 % of control | dose: 15.0 mg/kg/injection, schedule: Q01DX009 (oral), vehicle: saline with Tween-80 104 % of control | dose: 15.0 mg/kg/injection, schedule: Q03HX008 (ip), vehicle: saline with Tween-80 109 % of control | dose: 15.0 mg/kg/injection, schedule: Q03HX016 (ip), vehicle: saline with Tween-80 109 % of control | dose: 15.0 mg/kg/injection, schedule: Q03HX024 (ip), vehicle: saline with Tween-80 113 % of control | dose: 25.0 mg/kg/injection, schedule: Q01DX005 (ip), vehicle: saline with Tween-80 108 % of control | dose: 30.0 mg/kg/injection, schedule: Q01DX001 (ip), vehicle: saline with Tween-80 110 % of control | dose: 30.0 mg/kg/injection, schedule: Q01DX009 (ip), vehicle: saline with Tween-80 100 % of control | dose: 30.0 mg/kg/injection, schedule: Q01DX009 (oral), vehicle: saline with Tween-80 104 % of control | dose: 30.0 mg/kg/injection, schedule: Q03HX008 (ip), vehicle: saline with Tween-80 109 % of control | dose: 30.0 mg/kg/injection, schedule: Q03HX016 (ip), vehicle: saline with Tween-80 100 % of control | dose: 30.0 mg/kg/injection, schedule: Q04DX003 (ip), vehicle: saline with Tween-80 90 % of control | dose: 30.0 mg/kg/injection, schedule: Q08DX002 (ip), vehicle: saline with Tween-80 105 % of control | [1] 113 % of control and 93 % of control | dose: 60.0 mg/kg/injection, schedule: Q01DX001 (ip), vehicle: saline with Tween-80 110 % of control | dose: 60.0 mg/kg/injection, schedule: Q01DX001 (oral), vehicle: saline with Tween-80 100 % of control | dose: 60.0 mg/kg/injection, schedule: Q08DX002 (ip), vehicle: saline with Tween-80 100 % of control | dose: 240.0 mg/kg/injection, schedule: Q08DX002 (ip), vehicle: saline with Tween-80 100 % of control

CCOC(=O)C(=Cc1ccc(OC)c(OC)c1)C(=O)OCC
inactive: [1] 110 % of control | [2] 102 % of control | dose: 200.0 mg/kg/injection, schedule: Q01DX005 (ip), vehicle: saline with Tween-80 103 % of control

N#C[C@H]1O[C@H]1c1ccc[n+]([O-])c1
inactive: dose: 12.5 mg/kg/injection, schedule: Q01DX005 (ip), vehicle: saline 107 % of control | [3] 102 % of control | [4] 103 % of control and 115 % of control

CCOC(=O)CC1NCCc2ccccc21 (centres undefined)
inactive: dose: 25.0 mg/kg/injection, schedule: Q01DX005 (ip), vehicle: saline + alcohol 103 % of control | dose: 50.0 mg/kg/injection, schedule: Q01DX005 (ip), vehicle: saline + alcohol 103 % of control | dose: 100.0 mg/kg/injection, schedule: Q01DX005 (ip), vehicle: saline + alcohol 103 % of control | dose: 200.0 mg/kg/injection, schedule: Q01DX005 (ip), vehicle: saline + alcohol 101 % of control

CC(C)=CC[P+](CC[P+](CC=C(C)C)(c1ccccc1)c1ccccc1)(c1ccccc1)c1ccccc1
inactive: dose: 6.25 mg/kg/injection, schedule: Q01DX005 (ip), vehicle: saline with Tween-80 98 % of control | dose: 12.5 mg/kg/injection, schedule: Q01DX005 (ip), vehicle: saline with Tween-80 98 % of control

CC(C)(C)c1cc(O)cc(C(=O)O)c1O
inactive: [5] 101 % of control | [6] 100 % of control

Cc1ccc(S(=O)(=O)N/N=C/C=C\C(=O)O)cc1
inactive: dose: 12.5 mg/kg/injection, schedule: Q01DX009 (ip), vehicle: distilled water + Tween-80 101 % of control | dose: 25.0 mg/kg/injection, schedule: Q01DX009 (ip), vehicle: distilled water + Tween-80 99 % of control | dose: 50.0 mg/kg/injection, schedule: Q01DX009 (ip), vehicle: distilled water + Tween-80 107 % of control | dose: 100.0 mg/kg/injection, schedule: Q01DX009 (ip), vehicle: distilled water + Tween-80 100 % of control | dose: 200.0 mg/kg/injection, schedule: Q01DX009 (ip), vehicle: distilled water + Tween-80 94 % of control | dose: 400.0 mg/kg/injection, schedule: Q01DX009 (ip), vehicle: distilled water + Tween-80 110 % of control

CCCCCCC(=O)/C=C/c1cccc(OCc2cccc(Cl)c2)c1
inactive: dose: 50.0 mg/kg/injection, schedule: Q01DX005 (ip), vehicle: saline + Tween-80 + alcohol 96 % of control | dose: 100.0 mg/kg/injection, schedule: Q01DX005 (ip), vehicle: saline + Tween-80 + alcohol 91 % of control | dose: 200.0 mg/kg/injection, schedule: Q01DX005 (ip), vehicle: saline + Tween-80 + alcohol 96 % of control

CCOc1c(N=Nc2ccccc2Cl)c(C)nn1C(N)=S
inactive: dose: 3.75 mg/kg/injection, schedule: Q01DX005 (ip), vehicle: Klucel + Tween-80 103 % of control | dose: 7.5 mg/kg/injection, schedule: Q01DX005 (ip), vehicle: Klucel + Tween-80 103 % of control | dose: 15.0 mg/kg/injection, schedule: Q01DX005 (ip), vehicle: Klucel + Tween-80 100 % of control and 110 % of control

CCOCC1COc2c(cc3[nH]cc(C(=O)OCC)c(=O)c3c2Cl)O1 (centres undefined) (tested in a mixture with another compound)
inactive: [5] 94 % of control | [6] 99 % of control | dose: 200.0 mg/kg/injection, schedule: Q01DX009 (ip), vehicle: saline with Tween-80 101 % of control

CCCCCCCCCC1=C(C#N)C(=O)OCCN1C
inactive: [7] 92 % of control | [8] 93 % of control

O=C(O)CCO/N=C1/Oc2ccc(Cl)cc2C1=O
inactive: [7] 103 % of control | [8] 102 % of control | dose: 240.0 mg/kg/injection, schedule: Q01DX005 (ip), vehicle: saline with Tween-80 101 % of control

COC1=CC(=[N+]2CCCCC2)CC(C)(C)C1
inactive: [3] 98 % of control | [4] 100 % of control

FC(F)(F)c1ccc2nc(Cl)[nH]c2c1
inactive: [1] 98 % of control | [2] 98 % of control

COC(=O)c1cc(-c2ccc(C)cc2)[nH]c(=O)c1C#N
inactive: dose: 60.0 mg/kg/injection, schedule: Q01DX005 (ip), vehicle: saline 103 % of control | dose: 120.0 mg/kg/injection, schedule: Q01DX005 (ip), vehicle: saline 100 % of control | dose: 240.0 mg/kg/injection, schedule: Q01DX005 (ip), vehicle: saline 108 % of control

CCC[CH2][Sn]([Cl])([CH2]CCC)[S]C(=S)NCCNC(=S)[S][Sn]([Cl])([CH2]CCC)[CH2]CCC
inactive: dose: 0.78 mg/kg/injection, schedule: Q01DX009 (ip), vehicle: Klucel (hydroxypropylcellulose) (HPC) 93 % of control | dose: 1.56 mg/kg/injection, schedule: Q01DX009 (ip), vehicle: Klucel (hydroxypropylcellulose) (HPC) 98 % of control

CN1C(=O)/C(=C2\Sc3ccccc3NC2=O)SC1=S
inactive: dose: 50.0 mg/kg/injection, schedule: Q04DX003 (ip), vehicle: saline with Tween-80 92 % of control | [9] 95 % of control | [10] 102 % of control

CCCCC(=O)Oc1cc(=O)n(C)c2cc(C)n(C)c(=O)c12
inactive: dose: 60.0 mg/kg/injection, schedule: Q01DX005 (ip), vehicle: Klucel (hydroxypropylcellulose) (HPC) 98 % of control | dose: 120.0 mg/kg/injection, schedule: Q01DX005 (ip), vehicle: Klucel (hydroxypropylcellulose) (HPC) 103 % of control | dose: 240.0 mg/kg/injection, schedule: Q01DX005 (ip), vehicle: Klucel (hydroxypropylcellulose) (HPC) 106 % of control

Cc1ccc2c(c1)CN(C13CC4CC(CC(C4)C1)C3)CO2
inactive: dose: 66.0 mg/kg/injection, schedule: Q04DX003 (ip), vehicle: saline with Tween-80 95 % of control | [9] 100 % of control | dose: 150.0 mg/kg/injection, schedule: Q04DX003 (ip), vehicle: saline with Tween-80 100 % of control | [10] 105 % of control | dose: 400.0 mg/kg/injection, schedule: Q04DX003 (ip), vehicle: saline with Tween-80 115 % of control
